In patent US20250144067A1, “PERSONALIZED STARVATION THERAPY FOR CANCER” (Faeth Therapeutics, Inc., priority 2021, published 2025):
Where a name gives a salt, the structure may show the parent alone. Read-outs that look alike come from different tables or passages of the source.

Legend:
[1] = system: NCI-H292 lung cancer cells; assay: FDA drug screening, complete media vs cholesterol-free media with simvastatin (TABLE 2); type: cell-based, human
[2] = system: NCI-H292 lung cancer cells; assay: FDA drug screening, complete media vs cholesterol-free media without statin (TABLE 1); type: cell-based, human
[3] = NCI-H292 cells, FDA drug library screen, cholesterol-free media with simvastatin 0.04 μM
[4] = NCI-H292 cells, FDA drug library screen, complete media
[5] = complete media minus cholesterol-free media + simvastatin, >0 enhanced anti-cancer activity, about 0 neutral, <0 antagonist
[6] = Complete minus Cholesterol-free, greater than 0 enhanced anti-cancer activity, about 0 neutral, below 0 antagonists
[7] = NCI-H292 cells in cholesterol-free media without statin
[8] = NCI-H292 cells in complete media
[9] = NCI-H292 cells, cholesterol-free media with simvastatin 0.04 μM, cell growth value in FDA drug screen
[10] = NCI-H292 cells, complete media, cell growth value in FDA drug screen
[11] = complete media vs cholesterol-free media + simvastatin (0.04 μM), >0 enhanced anti-cancer activity, about 0 neutral, <0 antagonist
[12] = Complete minus Cholesterol-free, greater than 0 enhanced anti-cancer activity, about 0 neutral, below 0 antagonist
[13] = NCI-H292 cells, FDA drug library screen, cholesterol-free media without statin
[14] = NCI-H292 cells, cholesterol-free media without statin, FDA drug library screen
[15] = NCI-H292 cells, complete media, FDA drug library screen
[16] = complete vs cholesterol-free media, >0 enhanced anti-cancer activity, about 0 neutral, <0 antagonist
[17] = NCI-H292 cells, FDA library drug in cholesterol-free media with simvastatin 0.04 μM
[18] = NCI-H292 cells, FDA library drug in complete media
[19] = Complete minus Cholesterol-free, >0 enhanced anti-cancer activity, about 0 neutral, <0 antagonist
[20] = NCI-H292 cells, cholesterol-free media without statin
[21] = NCI-H292 cells, drug in cholesterol-free media with simvastatin 0.04 μM
[22] = NCI-H292 cells, drug in complete media
[23] = complete vs cholesterol-free media, greater than 0 enhanced anti-cancer activity, about 0 neutral, below 0 antagonists

CN1CCCN=C1/C=C/c1cccc(O)c1.O=C(O)c1cc2ccccc2c(Cc2c(O)c(C(=O)O)cc3ccccc23)c1O [Oxantel (pamoate)]
Cholesterol-free media + simvastatin (0.04 μM) [1, 3]: 0.9072
Complete Media [1, 4]: 1.051
Difference [1, 5]: 0.14
Difference [2, 6]: −0.51
Cholesterol-free [2, 7]: 1.526
Complete [2, 8]: 1.019

CC(=O)OCC(=O)[C@@]1(O)CC[C@H]2[C@@H]3CCC4=CC(=O)CC[C@]4(C)[C@H]3C(=O)C[C@@]21C [Cortisone acetate]
Cholesterol-free media + simvastatin (0.04 μM) [1, 9]: 1.003
Complete Media [1, 10]: 1.101
Difference [1, 5]: 0.10
Difference [2, 6]: −1.35
Cholesterol-free [2, 7]: 2.332
Complete [2, 8]: 0.9837

C[C@@H]1C/C=C/C=C/C=C/C=C/[C@H](O[C@@H]2O[C@H](C)[C@@H](O)[C@H](N)[C@@H]2O)C[C@@H]2O[C@](O)(C[C@@H](O)C[C@H]3O[C@@H]3/C=C/C(=O)O1)C[C@H](O)[C@H]2C(=O)O [Natamycin]
Cholesterol-free media + simvastatin (0.04 μM) [1, 3]: 1.218
Complete Media [1, 4]: 1.127
Difference [1, 11]: −0.09
Difference [2, 12]: −0.07
Cholesterol-free [2, 13]: 1.061
Complete [2, 4]: 0.9893

CCC(C)n1ncn(-c2ccc(N3CCN(c4ccc(OCC5COC(Cn6cncn6)(c6ccc(Cl)cc6Cl)O5)cc4)CC3)cc2)c1=O (stereo not drawn) [Itraconazole]
Cholesterol-free media + simvastatin (0.04 μM) [1, 3]: 1.121
Complete Media [1, 4]: 0.9797
Difference [1, 11]: −0.14
Cholesterol-free [2, 14]: 0.7502
Complete [2, 15]: 1.257
Difference [2, 16]: 0.51

Cc1ccc(Sc2ccccc2N2CCNCC2)c(C)c1 [Vortioxetine (hydrobromide)]
Cholesterol-free media + simvastatin (0.04 μM) [1, 17]: 1.363
Complete Media [1, 18]: 1.083
Difference [1, 11]: −0.28
Difference [2, 19]: −0.30
Cholesterol-free [2, 20]: 0.7215
Complete ([2]; NCI-H292 cells, complete media): 0.4184

CC(C)NCC(O)COc1ccc(COCCOC(C)C)cc1.CC(C)NCC(O)COc1ccc(COCCOC(C)C)cc1.O=C(O)/C=C/C(=O)O (racemic) [(±)-Bisoprolol (hemifumarate)]
Cholesterol-free media + simvastatin (0.04 μM) [1, 3]: 0.9429
Difference [1, 5]: 0.21
Difference [2, 19]: −0.20
Cholesterol-free [2, 20]: 1.077
Complete ([2]; NCI-H292 cells, complete media): 0.8813

COC(=O)[C@H]1[C@H]2C[C@@H]3c4[nH]c5ccccc5c4CCN3C[C@H]2C[C@@H](OC(=O)c2cc(OC)c(OC)c(OC)c2)[C@@H]1OC [Deserpidine]
Cholesterol-free media + simvastatin (0.04 μM) [1, 21]: 1.05
Complete Media [1, 22]: 0.8141
Difference [1, 11]: −0.24
Difference [2, 19]: −0.30
Cholesterol-free [2, 20]: 0.9648
Complete ([2]; NCI-H292 cells, complete media): 0.6619

CC1(S(=O)(=O)[O-])CC(=O)c2ccccc2C1=O.[Na+] (stereo not drawn) [Menadione bisulfite (sodium)]
Cholesterol-free media + simvastatin (0.04 μM) [1, 21]: 0.991
Complete Media [1, 22]: 0.8295
Difference [1, 11]: −0.16
Difference [2, 19]: 0.03
Cholesterol-free [2, 14]: 1.466
Complete [2, 15]: 1.492

Nc1c(CC(=O)O)cccc1C(=O)c1ccc(Br)cc1 [Bromfenac (sodium)]
Complete Media [1, 18]: 1.029
Difference [1, 11]: −0.59
Cholesterol-free [2, 20]: 1.333
Complete ([2]; NCI-H292 cells, complete media): 0.9935
Difference [2, 23]: −0.34

Cc1ccccc1OCC(O)CO (stereo not drawn) [Mephenesin]
Cholesterol-free media + simvastatin (0.04 μM) [1, 3]: 1.225
Complete Media [1, 4]: 1.535
Difference [1, 5]: 0.31
Cholesterol-free [2, 14]: 0.8638
Complete [2, 15]: 1.459
Difference [2, 16]: 0.60

COc1cc(C(=O)NC2CCCNC2)cc(OC)c1OC (stereo not drawn) [Troxipide]
Cholesterol-free media + simvastatin (0.04 μM) [1, 17]: 1.578
Complete Media [1, 18]: 1.185
Difference [1, 11]: −0.39
Difference [2, 6]: −0.70
Cholesterol-free [2, 7]: 1.812
Complete [2, 8]: 1.111

O=C(O[C@@H]1C[C@@H]2C[C@H]3C[C@H](C1)N2CC3=O)c1c[nH]c2ccccc12 [Dolasetron]
Cholesterol-free media + simvastatin (0.04 μM) [1, 9]: 0.9714
Complete Media [1, 10]: 1.02
Difference [1, 5]: 0.05
Cholesterol-free [2, 20]: 1.4
Complete ([2]; NCI-H292 cells, complete media): 0.9782
Difference [2, 23]: −0.42

Cc1cccc(C)c1OCC(C)N (stereo not drawn) [Mexiletine (hydrochloride)]
Cholesterol-free media + simvastatin (0.04 μM) [1, 3]: 1.005
Complete Media [1, 4]: 0.8858
Difference [1, 11]: −0.12
Difference [2, 19]: −0.20
Cholesterol-free [2, 20]: 1.086
Complete ([2]; NCI-H292 cells, complete media): 0.8848

CC(C)c1cccc(C(C)C)c1O [Propofol]
Cholesterol-free media + simvastatin (0.04 μM) [1]: 1.559
Complete Media [1]: 1.224
Difference [1]: −0.33
Cholesterol-free [2]: 0.9745
Complete [2]: 0.7898
Difference [2]: −0.18

Gentamicin (sulfate)
Cholesterol-free media + simvastatin (0.04 μM) [1, 9]: 0.8679
Complete Media [1, 10]: 0.9575
Difference [1, 5]: 0.09
Difference [2, 19]: 0.07
Cholesterol-free [2, 14]: 0.9104
Complete [2, 15]: 0.9799

Clopidogrel (hydrogen sulfate)
Cholesterol-free media + simvastatin (0.04 μM) [1, 21]: 1.048
Complete Media [1, 22]: 0.8246
Difference [1, 11]: −0.22
Difference [2, 12]: −0.10
Cholesterol-free [2, 13]: 1.157
Complete [2, 4]: 1.053

C[N+](C)(C)CCO.[Cl-] [Choline (chloride)]
Cholesterol-free media + simvastatin (0.04 μM) [1, 9]: 0.793
Complete Media [1, 10]: 0.8494
Difference [1, 5]: 0.06
Cholesterol-free [2, 14]: 0.7223
Complete [2, 15]: 1.217
Difference [2, 16]: 0.49

C=C1C[C@H]2[C@@H]3CCC4=CC(=O)CC[C@@H]4[C@H]3CC[C@]2(C)[C@@]1(OC(C)=O)C(C)=O [Nestoron]
Cholesterol-free media + simvastatin (0.04 μM) ([1]; NCI-H292 cells, cholesterol-free media with simvastatin 0.04 μM, FDA drug library screen (TABLE 2)): 0.9628
Complete Media ([1]; NCI-H292 cells, complete media, FDA drug library screen (TABLE 2)): 0.9132
Difference ([1]; complete media minus cholesterol-free media + simvastatin (0.04 μM), […]): −0.05
Cholesterol-free [2, 20]: 1.481
Complete ([2]; NCI-H292 cells, complete media): 1.095
Difference ([2]; complete vs cholesterol-free media, […]): −0.39

Cc1cccc(C)c1NC(=O)C(C)N (stereo not drawn) [Tocainide (hydrochloride)]
Cholesterol-free media + simvastatin (0.04 μM) [1, 21]: 1.258
Complete Media [1, 22]: 1.006
Difference [1, 11]: −0.25
Cholesterol-free [2, 20]: 1.376
Complete ([2]; NCI-H292 cells, complete media): 0.9544
Difference [2, 23]: −0.42

CCCCC1C(=O)N(c2ccccc2)N(c2ccc(O)cc2)C1=O (stereo not drawn) [Oxyphenbutazone]
Cholesterol-free media + simvastatin (0.04 μM) [1, 17]: 1.844
Complete Media [1, 18]: 1.056
Difference [1, 11]: −0.79
Difference [2, 12]: −0.11
Cholesterol-free [2, 13]: 1.282

OC(CCN1CCCC1)(c1ccccc1)C1CCCCC1 (stereo not drawn) [Procyclidine (hydrochloride)]
Cholesterol-free media + simvastatin (0.04 μM) [1, 21]: 1.237
Complete Media [1, 22]: 1.076
Difference [1, 11]: −0.16
Cholesterol-free [2, 20]: 1.459
Complete ([2]; NCI-H292 cells, complete media): 0.997
Difference [2, 23]: −0.46

Cc1nnc(SCC2=C(C(=O)[O-])N3C(=O)[C@@H](NC(=O)Cn4cnnn4)[C@H]3SC2)s1.[Na+] [Cefazolin (sodium)]
Cholesterol-free media + simvastatin (0.04 μM) [1, 17]: 1.378
Complete Media [1, 18]: 1.076
Difference [1, 11]: −0.30
Difference [2, 6]: −0.79
Cholesterol-free [2, 7]: 1.776
Complete [2, 8]: 0.9866

COc1ccc([C@@H]2Sc3ccccc3N(CCN(C)C)C(=O)[C@@H]2OC(C)=O)cc1 [Diltiazem (hydrochloride)]
Cholesterol-free media + simvastatin (0.04 μM) [1, 3]: 1.317
Complete Media [1, 4]: 1.159
Difference [1, 11]: −0.16
Cholesterol-free [2, 20]: 1.001
Complete ([2]; NCI-H292 cells, complete media): 0.6844
Difference [2, 23]: −0.32
